In patent EP0308781A2, “Antimycotic preparations” (BAYER AG, priority 1987, dated 1989):

System: Candida-Zellen
Experiment: Antimycotic in vivo efficacy (oral) in mouse candidosis
Parameters: species or system Mäuse vom Typ SPF-CF1; key to Wirkung: + + + + +: sehr gute Wirkung = 90 % Überlebende am 6.Tag.p.i.; + + + +: gute Wirkung = 80 % Überlebende am 6.Tag.p.i.; + + +: Wirkung = 60 % Überlebende am 6.Tag.p.i.; + +: schwache Wirkung = 40 % Überlebende am 6.Tag.p.i.; +: Spur Wirkung = unter 40 % Überlebende am 6. Tag p.i.; k.W.: kein Unterschied zur unbehandelten Infektionskontrolle
Details: for Wirkung: mice infected i.v. with 1 - 2 x 10^6 Candida cells, oral treatment with 10 - 100 mg/kg each, one hour before and seven hours after infection, survivors on day 6 p.i.
Method: Antimykotische in-vivo-Wirksamkeit (oral) bei Mäusecandidose
Mäuse vom Typ SPF-CF1 wurden intravenös mit […] logarithmisch wachsenden Candida-Zellen, die in physiologischer Kochsalzlösung suspendiert werden, infiziert. Eine Stunde vor und sieben Stunden nach der Infektion werden die Tiere mit jeweils 10 - 100 mg/kg Körpergewicht der Präparate oral behandelt.
Unbehandelte Tiere starben 3 bis 6 Tage post infektionem. Die Überlebensrate am 6.Tag post infektionem betrug bei unbehandelten Kontrolltieren etwa 5 %.

SMILES | Wirkung | Wirkung (comparison with known compounds) (oral, mouse candidosis, statement in words, compared with (A) and (B))
OC(Cn1cncn1)(c1ccc(Cl)cc1)C1(F)CC1 (stereo not shown) [(A)] | k.W. | –
OC(Cn1cncn1)(c1ccccc1)C1(F)CC1 (stereo not shown) [(B)] | k.W. | –
OC(Cc1ccc(F)cc1)(Cn1cncn1)C1(Cl)CC1 (stereo not shown) [(I-1), 1-(4-Fluorphenyl)-2-(1-chlor-cyclopropyl)-3-(1,2,4-triazol-1-yl)-propan-2-ol] | + + + + + (sehr gute Wirkung = 90 % Überlebende am 6.Tag.p.i.) | bessere Wirkung
